Among the data in ChEMBL document CHEMBL1158768, “Isolation and structure elucidation of the new fungal metabolite (-)-xylariamide A” (J Nat Prod, 2005) are Activity values, retold here.

Common to all, as to type: organism-based
What all share (conditions): in vivo

The subject of data set [1] is Artemia salina. Briefly: Toxicity in Artemia salina at 20 ug/mL.
In data set [2] the test system is Artemia salina. Briefly: Toxicity in Artemia salina at 200 ug/mL.
Data set [3] has as its system Artemia salina. Briefly: Toxicity in Artemia salina.

As for `COC(=O)/C=C/C(=O)N[C@H](Cc1ccc(O)c(Cl)c1)C(=O)O` [(-)-XYLARIAMIDE A], the values for the Activity in data set [1] and in data set [2] were 0% and 71%, respectively.

Turning to `COC(=O)/C=C/C(=O)N[C@@H](Cc1ccc(O)c(Cl)c1)C(=O)O` [(+)-XYLARIAMIDE A], the Activity result in data set [3] was “Non-toxic”.
